“And” between values parts separate entries of the source, which are not always exact repeats. Identical values can stand only once. Like-named read-outs stand apart in the source and are kept apart here.
Molecular target: SARS-CoV-2 NSP3 Mac1 (Severe acute respiratory syndrome coronavirus 2, UniProt P0DTD1)
Assay: biochemical
Type: binding
Details: for inhibition at 125 µM: read-out: Inhibition at top concentration of 125 µM (%); for IC50 in µM / IC50: 8-point 1:1 dilution; for IC50: read-out: IC50; for inhibition at 187 µM: read-out: Inhibition at top screening concentration of 187 µM; for Hill slope: confirmatory IC50 curves
[1] = MIDAS hit compounds and analogues, 125 µM
[2] = MIDAS hit compounds and analogues, top concentration 125 µM, duplicate
[3] = MIDAS compound library primary screen
[4] = BioAscent hit compounds, top concentration 187 µM, duplicate
[5] = BioAscent virtual screening hit compounds, duplicate

Row | Compound | inhibition at 125 µM [1] [%] | IC50 in µM [2] | IC50 [2] | further results
1 | CC(C)n1ncc2c(C(=O)N(C)Cc3cccc(O)c3)cc(-c3cccs3)nc21 [IAL-MD0104, CC(C)N1N=CC=2C(=CC(=NC12)C3=CC=CS3)C(=O)N(C)CC=4C=CC=C(O)C4] | 18.4 | Not measurable | – | –
2 | CC(C)n1ncc2c(C(=O)N3CCC(C)(CO)CC3)cc(-c3cccs3)nc21 [IAL-MD0106, CC(C)N1N=CC=2C(=CC(=NC12)C3=CC=CS3)C(=O)N4CCC(C)(CO)CC4] | 32.1 | Not measurable | – | –
3 | CC(C)n1ncc2c(C(=O)N3CCC(C)(O)CC3)cc(-c3cccs3)nc21 [IAL-MD0107, CC(C)N1N=CC=2C(=CC(=NC12)C3=CC=CS3)C(=O)N4CCC(C)(O)CC4] | 40.5 | Not measurable | – | –
4 | CC(CNC(=O)c1cc(-c2cccs2)nc2c1cnn2C(C)C)N1CCCCC1 (stereo not shown) [IAL-MD0108, CC(C)N1N=CC=2C(=CC(=NC12)C3=CC=CS3)C(=O)NCC(C)N4CCCCC4] | 60.5 | – | 68 µM and 67.8 µM | –
5 | CCn1ncc2c(C(=O)N(Cc3ccccn3)C(C)C)cc(-c3ccccc3)nc21 [IAL-MD0109, CCN1N=CC=2C(=CC(=NC12)C=3C=CC=CC3)C(=O)N(CC=4C=CC=CN4)C(C)C] | – | Not measurable | – | Inhibition at top concentration of 125 µM (%) [1]: Not measurable
6 | O=C(c1ccc(NCC2CC2)nc1)N1CCC(c2c[nH]c3ncccc23)CC1 [IAL-MD0110, O=C(N1CCC(CC1)C2=CNC=3N=CC=CC23)C=4C=CC(NCC5CC5)=NC4] | 7.8 | Not measurable | – | –
7 | CC1(C(=O)N2CCCC(c3c[nH]c4ncccc34)C2)CCC(=O)NC1 (stereo not shown) [IAL-MD0114, CC1(CCC(=O)NC1)C(=O)N2CCCC(C2)C3=CNC=4N=CC=CC34] | 13.4 | Not measurable | – | –
8 | CNC(=O)c1ccc(C(=O)N2CCC(c3c[nH]c4ncccc34)CC2)cn1 [IAL-MD0115, CNC(=O)C=1C=CC(=CN1)C(=O)N2CCC(CC2)C3=CNC=4N=CC=CC34] | 9.3 | Not measurable | – | –
9 | COCCN(CC(N)=O)C(=O)c1cc(-c2cccs2)nc2c1c(C)nn2C [IAL-MD0116, COCCN(CC(=O)N)C(=O)C=1C=C(N=C2N(C)N=C(C)C12)C3=CC=CS3] | 55.8 | Not measurable | – | –
10 | CCn1ncc2c(C(=O)NCc3ccc(OC)nc3)cc(-c3cccs3)nc21 [IAL-MD0117, CCN1N=CC=2C(=CC(=NC12)C3=CC=CS3)C(=O)NCC=4C=CC(OC)=NC4] | 9.7 | Not measurable | – | –
11 | COc1ccc(-c2cc(C(=O)Nc3ccc4ccccc4c3)c3ccccc3n2)cc1 [IAL-MD0118, COC=1C=CC(=CC1)C=2C=C(C(=O)NC=3C=CC=4C=CC=CC4C3)C=5C=CC=CC5N2] | 25.6 | Not measurable | – | –
12 | CCn1ncc2c(C(=O)NC(C)c3ccccn3)cc(-c3cccs3)nc21 (stereo not shown) [IAL-MD0119, CCN1N=CC=2C(=CC(=NC12)C3=CC=CS3)C(=O)NC(C)C=4C=CC=CN4] | 6.3 | Not measurable | – | –
13 | CCn1ncc2c(C(=O)NC(C)c3ccncc3)cc(-c3cccs3)nc21 (stereo not shown) [IAL-MD0120, CCN1N=CC=2C(=CC(=NC12)C3=CC=CS3)C(=O)NC(C)C=4C=CN=CC4] | 8.9 | Not measurable | – | –
14 | Cc1nn(C)c2nc(-c3cccs3)cc(C(=O)NC3CCOCC3)c12 [IAL-MD0121, CC1=NN(C)C=2N=C(C=C(C(=O)NC3CCOCC3)C12)C4=CC=CS4] | 17.8 | Not measurable | – | –
15 | CC(C)n1ncc2c(C(=O)N3CCNC(=O)C3)cc(-c3ccccc3)nc21 [IAL-MD0123, CC(C)N1N=CC=2C(=CC(=NC12)C=3C=CC=CC3)C(=O)N4CCNC(=O)C4] | 1.8 | Not measurable | – | –
16 | Cc1ccc(Cn2ncc3c(C(=O)N4CCNC(=O)C4)cc(C)nc32)cc1 [IAL-MD0124, CC=1C=CC(CN2N=CC=3C(=CC(C)=NC23)C(=O)N4CCNC(=O)C4)=CC1] | – | Not measurable | – | Inhibition at top concentration of 125 µM (%) [1]: Not measurable
17 | CCOc1ccc2c(C)c(C(=O)N[C@@H]3CCNC[C@H]3O)oc2c1OCC [IAL-MD0127, O=C(C(O1)=C(C)C2=C1C(OCC)=C(OCC)C=C2)N[C@H]3[C@H](O)CNCC3.[H]Cl] | – | – | 38 µM | inhibition at 25 µM [3]: 40%; inhibition at 125 µM: 66.5%
18 | Cn1ccc2c(-c3ccc(C(=O)N4CCCCC4)cn3)ccnc21 [IAL-MD0128, O=C(C1=CN=C(C2=C3C(N(C)C=C3)=NC=C2)C=C1)N4CCCCC4] | – | – | ~3.1 µM and 3.1 µM | inhibition at 25 µM [3]: 58%; Inhibition at top concentration of 125 µM (%) [1]: Not measurable due to compound precipitation; assay effects in dose-response titration (MIDAS hits and analogues, higher compound concentrations): assay interference effects at higher compound concentrations
19 | CN1CCC(Cn2ccnc2-c2ccc(-c3ccccc3C#N)o2)C1 (stereo not shown) [IAL-MD0129, N#CC1=CC=CC=C1C2=CC=C(C3=NC=CN3CC4CN(C)CC4)O2] | – | – | 14.2 µM | inhibition at 25 µM [3]: 55%; Inhibition at top concentration of 125 µM (%) [1]: Not measurable due to compound precipitation
20 | CC(C)NC(=O)c1ccc(-c2ccnc3c2ccn3C)o1 [IAL-MD0130, O=C(NC(C)C)C1=CC=C(C2=C3C(N(C)C=C3)=NC=C2)O1] | – | – | 7.6 µM | Inhibition at top concentration of 125 µM (%) [1]: Not measurable due to compound precipitation

Row | Compound | inhibition at 125 µM [1] [%] | IC50 in µM [2] | IC50 [2] | further results
21 | Cn1ccc2c(-c3ccc(C(=O)N4CCOCC4)o3)ccnc21 [IAL-MD0131, O=C(C1=CC=C(C2=C3C(N(C)C=C3)=NC=C2)O1)N4CCOCC4] | – | – | 4.9 µM | Inhibition at top concentration of 125 µM (%) [1]: Not measurable due to compound precipitation
22 | Cn1ccc2c(-c3ccc(C(=O)NC4CC4)o3)ccnc21 [IAL-MD0132, O=C(NC1CC1)C2=CC=C(C3=C4C(N(C)C=C4)=NC=C3)O2] | – | – | 7.2 µM | Inhibition at top concentration of 125 µM (%) [1]: Not measurable due to compound precipitation
23 | CN(C)C(=O)c1ccc(-c2ccnc3c2ccn3C)o1 [IAL-MD0133, O=C(N(C)C)C1=CC=C(C2=C3C(N(C)C=C3)=NC=C2)O1] | – | – | 8.5 µM | Inhibition at top concentration of 125 µM (%) [1]: Not measurable due to compound precipitation
24 | CCCCNC(=O)c1ccc(-c2cc(N)nc3[nH]ccc23)o1 [IAL-MD0134, O=C(NCCCC)C1=CC=C(C2=C3C(NC=C3)=NC(N)=C2)O1] | 77.8 | – | 25 µM and 25.3 µM | –
25 | CN(C)C(=O)c1cncc(-c2ccnc3c2ccn3C)n1 [IAL-MD0135, O=C(C1=NC(C2=C3C(N(C)C=C3)=NC=C2)=CN=C1)N(C)C] | 18.3 | Not measurable | – | –
26 | Cn1ccc2c(-c3ncccc3C(N)=O)ccnc21 [IAL-MD0136, O=C(N)C1=C(C2=C3C(N(C)C=C3)=NC=C2)N=CC=C1] | 49.7 | Not measurable | – | –
27 | Cn1ccc2c(-c3cncc(C(=O)N4CCCCC4)n3)ccnc21 [IAL-MD0137, O=C(C1=CN=CC(C2=C3C(N(C)C=C3)=NC=C2)=N1)N4CCCCC4] | 25.8 | Not measurable | – | –
28 | Cn1ccc2c(-c3ncccc3C(=O)N3CCCCC3)ccnc21 [IAL-MD0138, O=C(C1=CC=CN=C1C2=C3C(N(C)C=C3)=NC=C2)N4CCCCC4] | 79.4 | – | 36 µM | –
29 | Cn1ccc2c(-c3cc(C(=O)N4CCCC4)ccn3)ccnc21 [IAL-MD0139, O=C(C1=CC(C2=C3C(N(C)C=C3)=NC=C2)=NC=C1)N4CCCC4] | 21.7 | Not measurable | – | –
30 | CN(C)C(=O)c1ccc(-c2ccnc3c2ccn3C)nc1 [IAL-MD0140, O=C(N(C)C)C1=CN=C(C2=C3C(N(C)C=C3)=NC=C2)C=C1] | – | – | 6.9 µM | Inhibition at top concentration of 125 µM (%) [1]: Not measurable due to compound precipitation
31 | CN(C)C1CCN(C(=O)c2ccc(-c3ncnc4[nH]ccc34)cc2)C1 (stereo not shown) [IAL-MD0141, O=C(N1CC(N(C)C)CC1)C2=CC=C(C3=C4C(NC=C4)=NC=N3)C=C2.O=CO] | 81.3 | – | 25.2 µM | –
32 | Cn1ccc2c(-c3ccc(C(=O)N4CCCC4)cn3)ccnc21 [IAL-MD0142, O=C(C1=CN=C(C2=C3C(N(C)C=C3)=NC=C2)C=C1)N4CCCC4] | 37.9 | Not measurable | – | –
33 | CC(=O)N1CCN(C(=O)c2ccc(-c3ncnc4[nH]ccc34)cc2)CC1 [IAL-MD0143, O=C(C1=CC=C(C2=C3C(NC=C3)=NC=N2)C=C1)N4CCN(C(C)=O)CC4] | 71.9 | – | 45 µM | –
34 | CCN(C)C(=O)c1ccc(-c2ccnc3c2ccn3C)nc1 [IAL-MD0144, O=C(N(CC)C)C1=CN=C(C2=C3C(N(C)C=C3)=NC=C2)C=C1] | 23.8 | Not measurable | – | –
35 | Cn1ccc2c(-c3ccc(Cn4ccnc4)cn3)ccnc21 [IAL-MD0145, CN1C=CC2=C(C3=NC=C(CN4C=CN=C4)C=C3)C=CN=C21] | 81.1 | – | 14 µM | –
36 | CN1CCN(C(=O)c2cncc(-c3ccnc4c3ccn4C)n2)CC1 [IAL-MD0146, O=C(C1=CN=CC(C2=C3C(N(C)C=C3)=NC=C2)=N1)N4CCN(C)CC4] | 3.7 | Not measurable | – | –
37 | CCNC(=O)c1ccc(-c2ccnc3c2ccn3C)o1 [IAL-MD0147, O=C(NCC)C1=CC=C(C2=C3C(N(C)C=C3)=NC=C2)O1] | – | – | 6.8 µM | Inhibition at top concentration of 125 µM (%) [1]: Not measurable due to compound precipitation
38 | CCCNC(=O)c1ccc(-c2ccnc3c2ccn3C)o1 [IAL-MD0148, O=C(NCCC)C1=CC=C(C2=C3C(N(C)C=C3)=NC=C2)O1] | – | – | 7.7 µM | Inhibition at top concentration of 125 µM (%) [1]: Not measurable due to compound precipitation
39 | CC(=O)c1ccc(-c2ccc(N)cc2)s1 [IAL-MD0305, CC(=O)c1ccc(-c2ccc(N)cc2)s1] | – | – | – | inhibition at 187 µM (BioAscent hit compounds): 63.1%; Hill slope (BioAscent hit compounds): 0.6; IC50 [4]: 28 µM; inhibition at 25 µM [5]: 56.2%
40 | COc1cc2c(cc1/C=C/C(=O)O)OC(C)C2 (stereo not shown) [IAL-MD0306, COc1cc2c(cc1/C=C/C(=O)O)OC(C)C2] | – | – | – | inhibition at 187 µM (BioAscent hit compounds): 81.3%; Hill slope (BioAscent hit compounds): 0.8; IC50 [4]: 18 µM; inhibition at 25 µM [5]: 63.7%

Source: article PMC9965906, “Discovery and Development Strategies for SARS-CoV-2 NSP3 Macrodomain Inhibitors” (Pathogens, 2023)
